# Data taken from ChEMBL document CHEMBL1134181, “Synthesis and biological evaluation of novel amides of polyunsaturated fatty acids with dopamine” (Bioorg Med Chem Lett, 2001).
# Key:
# Rattus norvegicus [1] = species: Rattus norvegicus; assay: Tested to induce analgesia in hot plate test, expressed as percent of latency time (p<0.05); assay type: functional
# Rattus norvegicus [2] = assay: Tested for decrease in rectal temperature 5 min after ip injection; assay type: functional
# Rattus norvegicus [3] = species: Rattus norvegicus; assay: Tested for percent immobility time in the ring test, expressed as % of control (p<0.01); assay type: functional
# Rattus norvegicus [4] = species: Rattus norvegicus; assay: Tested to induce analgesia in hot plate test, expressed as percent of latency time; assay type: functional
# Rattus norvegicus [5] = assay: Tested for decrease in rectal temperature 10 min after ip injection; assay type: functional
# Cannabinoid receptor 1 = Cannabinoid receptor 1 (Rattus norvegicus, UniProt P20272); assay: Concentration required to displace 0.4 nM [3H]SR-141,716A from CB1 receptor in rat brain preparations in the presence of 0.1 mM phenylmethyl sulfonyl fluoride; assay type: tissue-based
# Sequence of Cannabinoid receptor 1 (P20272 whole entry): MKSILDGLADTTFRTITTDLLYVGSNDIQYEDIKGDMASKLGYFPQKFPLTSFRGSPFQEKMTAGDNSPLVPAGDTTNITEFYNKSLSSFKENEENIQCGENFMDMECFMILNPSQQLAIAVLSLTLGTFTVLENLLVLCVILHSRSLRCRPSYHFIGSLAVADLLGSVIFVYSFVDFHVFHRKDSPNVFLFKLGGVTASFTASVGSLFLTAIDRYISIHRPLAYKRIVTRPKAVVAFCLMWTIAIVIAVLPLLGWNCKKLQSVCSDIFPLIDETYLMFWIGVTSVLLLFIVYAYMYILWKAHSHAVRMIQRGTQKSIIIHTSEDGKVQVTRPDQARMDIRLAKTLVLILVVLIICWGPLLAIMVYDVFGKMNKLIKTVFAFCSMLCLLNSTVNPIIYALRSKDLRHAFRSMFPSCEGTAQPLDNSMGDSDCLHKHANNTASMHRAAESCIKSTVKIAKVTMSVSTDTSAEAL
SMILES,Latency time (Rattus norvegicus [1]) [%],Rectal temperature (Rattus norvegicus [2]) [°C],Immobility time (Rattus norvegicus [3]) [%],Latency time (Rattus norvegicus [4]) [%],Rectal temperature (Rattus norvegicus [5]) [°C],Ki (Cannabinoid receptor 1) [nM]
CC/C=C\C/C=C\C/C=C\C/C=C\C/C=C\CCCC(=O)NCCc1ccc(O)c(O)c1,135,1.64,658,–,–,–
CCCCC/C=C\C/C=C\C/C=C\CCCCCCC(=O)NCCc1ccc(O)c(O)c1,–,0.43,693,129,0.7,–
CC/C=C\C/C=C\C/C=C\C/C=C\CCCCC(=O)NCCc1ccc(O)c(O)c1,–,1.45,570,120,1.67,–
CC/C=C\C/C=C\C/C=C\C/C=C\C/C=C\C/C=C\CCC(=O)NCCc1ccc(O)c(O)c1,296,0.9,674,–,1.1,–
CC/C=C\C/C=C\C/C=C\C/C=C\C/C=C\CCCCCC(=O)NCCc1ccc(O)c(O)c1,144,1.35,610,–,1.82,1370
CCCCC/C=C\C/C=C\CC/C=C\CCCC(=O)NCCc1ccc(O)c(O)c1,–,0.5,528,162,0.4,1720
CCCCC/C=C\C/C=C\C/C=C\C/C=C\CCCC(=O)NCCO [ANANDAMIDE],–,1.93,750,165,2.53,–
CCCCC/C=C\C/C=C\C/C=C\C/C=C\CCCC(=O)NCCc1ccc(O)c(O)c1 [ARACHIDONOYL DOPAMINE],222,1.35,500,–,1.27,380
